PubChem BioAssay AID179 (DTP/NCI, 2004)
Active and inactive are the calls of the source.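 The calls were made as follows: active = compounds giving half or more protection of infected cells from virus-caused growth loss, again on retest; inactive = the rest.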

Test system: CEM cells HIV-1 protection, formazan growth assay
Assay: NCI AIDS Antiviral Assay
Settings: for IC50: measured here: growth of uninfected CEM cells
Method in brief: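 Protection of CEM cells against HIV-1 measured as cell growth via soluble formazan read-out, with five concentrations tested on both infected and uninfected cells; failure to protect may reflect toxicity.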

**Q.** For Oc1ccc(SCc2cc(O)c(O)c(O)c2)cc1, which EC50 is on record?
**A.** The EC50 was over 200 µM.

**Q.** What about the IC50 of the same molecule?
**A.** The IC50 was 6.92 µM.

**Q.** What does the source list for O=C(CC(=O)c1ccccc1NC1=Cc2ccccc2C(=O)C1=O)C(=O)NC1=C(Cl)C(=O)c2ccccc2C1=O?
**A.** EC50: > 18.2 µM; IC50: 3.24 µM

**Q.** For COc1ccc(/C=N/Nc2nc3ccccc3c(=O)n2-c2ccccc2)cc1, which EC50 is on record?
**A.** Its EC50 is over 200 µM.

**Q.** And the IC50?
**A.** Its IC50 is over 200 µM.

**Q.** Which results are given for CN(C)c1nc(=NCc2cccnc2)ss1?
**A.** EC50: > 200 µM; IC50: 11.5 µM

**Q.** With O=S(=O)(Nc1nnc2c3ccccc3ccn12)c1ccc(F)cc1S as the molecule, how does the EC50 read?
**A.** The EC50 was 214 µM.

**Q.** And the IC50?
**A.** Its IC50 is 251 µM.

**Q.** Which EC50 does the source give for CC(=O)OC/C=C/Cn1cnc(C(N)=O)c1N here?
**A.** The EC50 was over 200 µM.

**Q.** What about the IC50 of the same molecule?
**A.** Its IC50 is over 200 µM.

**Q.** Which results are given for COc1c(OC)c(C2(O)C(=O)N(C)c3ccccc32)c(OC)c(OC)c1C1(O)C(=O)N(C)c2ccccc21 (configuration not stated)?
**A.** EC50: > 200 µM; IC50: > 200 µM

**Q.** How did the EC50 turn out when COCc1cc2c(cc1/C=C/[N+](=O)[O-])OCO2 was run?
**A.** The EC50 was over 200 µM.

**Q.** What about the IC50 of the same molecule?
**A.** The IC50 was 2.95 µM.

**Q.** Which results are given for C=CCOC1=C(OC(C)=O)C(=O)OC1C1COC(C)(C)O1 (configuration not stated)?
**A.** EC50: > 200 µM; IC50: 26.3 µM

**Q.** For CCN(CC)CC(C)C1NS(=O)(=O)c2ccccc21 (configuration not stated), which EC50 is on record?
**A.** Its EC50 is over 200 µM.

**Q.** And the IC50?
**A.** The IC50 was over 200 µM.

**Q.** Which EC50 does the source give for Cc1ccc(S(=O)(=O)N2CCCN(S(=O)(=O)c3ccc(C)cc3)CC2)cc1 here?
**A.** Its EC50 is over 45.7 µM.

**Q.** What about the IC50 of the same molecule?
**A.** The IC50 was over 45.7 µM.

**Q.** What does the source list for Cc1nccc2c1cnc1ccnn12?
**A.** EC50: > 28.2 µM; IC50: > 28.2 µM

**Q.** Which results are given for O=C(Nc1ccccc1)C(=O)C(C(=O)c1ccccc1)C(c1ccccc1)c1ccccc1 (configuration not stated)?
**A.** EC50: > 200 µM; IC50: 37.2 µM

**Q.** For COc1c(O)cc2c(c1O)C1O[C@H](CO)C(O)[C@H](O)[C@H]1OC2=O (some centres not stated), which EC50 is on record?
**A.** Its EC50 is over 200 µM.

**Q.** And the IC50?
**A.** Its IC50 is over 200 µM.

**Q.** O=C1CC2(c3ccccc3)ON=C(c3ccccc3)N2c2ccccc2N1 (configuration not stated) was tested. Which EC50 did it give?
**A.** Its EC50 is over 200 µM.

**Q.** What about the IC50 of the same molecule?
**A.** The IC50 was 85.1 µM.

**Q.** Which results are given for NC(=O)CNCCS(=O)(=O)O?
**A.** EC50: > 200 µM; IC50: > 200 µM

**Q.** Which EC50 does the source give for C/C(CC(=O)NCCc1ccccc1)=N\NC(=O)C[n+]1ccccc1 here?
**A.** The EC50 was over 95.5 µM.

**Q.** And the IC50?
**A.** Its IC50 is over 95.5 µM.

**Q.** How did the EC50 turn out when N#CCCC/C(=N\O)C(=O)OCc1ccccc1 was run?
**A.** Its EC50 is over 200 µM.

**Q.** What about the IC50 of the same molecule?
**A.** The IC50 was over 200 µM.

**Q.** c1ccc(C2=NN(c3ccccc3)C3(S2)SC(c2ccccc2)(c2ccccc2)c2ccccc23)cc1 (configuration not stated) was tested. Which EC50 did it give?
**A.** The EC50 was over 50.1 µM.

**Q.** What about the IC50 of the same molecule?
**A.** The IC50 was over 50.1 µM.

**Q.** With CC(=O)OCC1OC(Nc2[nH]c(=O)n(C)c(=O)c2-c2csc(N)n2)C(OC(C)=O)C(OC(C)=O)C1OC(C)=O (configuration not stated) as the molecule, how does the outcome read?
**A.** The outcome was “inactive”.

**Q.** How did the EC50 turn out when N#Cc1ccc(N=NN2CCCC2)cc1 was run?
**A.** The EC50 was over 200 µM.

**Q.** And the IC50?
**A.** Its IC50 is 17.8 µM.

**Q.** Which results are given for O=C1C(C(O)(C(F)(F)Cl)C(F)(F)Cl)CCC1C(O)(C(F)(F)Cl)C(F)(F)Cl (configuration not stated)?
**A.** EC50: > 200 µM; IC50: 4.37 µM

**Q.** With CCOc1cc2ccc3c4cc(OC)c(OC)cc4cnc3c2cc1OCC as the molecule, how does the EC50 read?
**A.** Its EC50 is over 36.3 µM.

**Q.** And the IC50?
**A.** Its IC50 is over 36.3 µM.

**Q.** For Clc1cc(OC23CC4CC(CC(C4)C2)C3)nc(Cl)n1, which EC50 is on record?
**A.** The EC50 was over 100 µM.

**Q.** And the IC50?
**A.** Its IC50 is 45.7 µM.

**Q.** For COc1ccc2nc3c([N+](=O)[O-])ccc4c3c(c2c1)NCCN4CCN(C)C, which EC50 is on record?
**A.** The EC50 was over 200 µM.

**Q.** What about the IC50 of the same molecule?
**A.** The IC50 was 1.05 µM.

**Q.** Which results are given for COC1/C=C\OC2(C)Oc3c(C)c(O)c4c(O)c(c(C=Nc5ccc6ccccc6c5)c(O)c4c3C2=O)NC(=O)/C(C)=C\C=C/C(C)C(O)C(C)C(O)C(C)C(OC(C)=O)C1C (configuration not stated)?
**A.** EC50: > 200 µM; IC50: 35.5 µM

**Q.** Which EC50 does the source give for COC(=O)C1=CCON(c2ccccc2)C1c1ccccc1 (configuration not stated) here?
**A.** The EC50 was over 45.7 µM.

**Q.** For COc1cccc(OC)c1C(=O)OCc1ccccc1, which EC50 is on record?
**A.** Its EC50 is over 95.5 µM.

**Q.** And the IC50?
**A.** The IC50 was over 95.5 µM.

**Q.** Which results are given for Cn1cnc([N+](=O)[O-])c1Sc1nnnn1-c1ccccc1?
**A.** EC50: > 224 µM; IC50: 10.7 µM

**Q.** How did the EC50 turn out when CC1(O)C[C@]23CC[C@H]4[C@@H](CC=C5C[C@@H](O)CC[C@@]54C)[C@@H]2CC[C@H]13 (some centres not stated) was run?
**A.** Its EC50 is over 200 µM.

**Q.** What about the IC50 of the same molecule?
**A.** The IC50 was over 200 µM.

**Q.** What does the source list for CC(C)CC(C(N)=O)C(=O)NC(Cc1ccccc1)NC(=O)CNC(=O)OC(C)(C)C (configuration not stated)?
**A.** EC50: > 25.1 µM; IC50: > 25.1 µM

**Q.** How did the outcome turn out when CCOC(=O)COc1cccc2occc(=O)c12 was run?
**A.** The outcome was “inactive”.

**Q.** With CN(C)C(=O)N1N[C@H](c2ccccc2)[C@@H]1c1ccccc1 as the molecule, how does the EC50 read?
**A.** The EC50 was over 200 µM.

**Q.** What about the IC50 of the same molecule?
**A.** The IC50 was 135 µM.

**Q.** Which results are given for O=c1cc(-c2ccccc2)oc2cc(O)ccc12?
**A.** EC50: > 186 µM; IC50: 85.1 µM

**Q.** Which EC50 does the source give for O=C(Nc1nc2c(=O)[nH]cnc2s1)c1ccccc1 here?
**A.** The EC50 was over 200 µM.

**Q.** What about the IC50 of the same molecule?
**A.** Its IC50 is over 200 µM.

**Q.** For Cc1nn(-c2cc(Cl)ccc2[N+](=O)[O-])c(C)c1Cl, which EC50 is on record?
**A.** Its EC50 is over 200 µM.

**Q.** And the IC50?
**A.** Its IC50 is 166 µM.

**Q.** COc1ccc(/C=N/NC(=O)CSc2nc(-c3ccccc3)c(-c3ccccc3)[nH]2)cc1OC was tested. Which EC50 did it give?
**A.** The EC50 was over 55 µM.

**Q.** And the IC50?
**A.** The IC50 was 31.6 µM.

**Q.** CCC(CO)Nc1nc2c(c(=O)n(C)c(=O)n2C)n1CCO (configuration not stated) was tested. Which outcome did it give?
**A.** Its outcome is “inactive”.

**Q.** What does the source list for CC(CS(=O)(=O)O)NC(CO)(CO)CO (configuration not stated)?
**A.** EC50: > 200 µM; IC50: > 200 µM

**Q.** Which results are given for Cc1csc(N2C(=O)c3cccc4cccc(c34)C2=O)n1?
**A.** EC50: > 200 µM; IC50: 64.6 µM

**Q.** Which outcome does the source give for CCN1c2ccccc2-c2c3c1cc(C)cc3c1ccccc1[n+]2CC here?
**A.** Its outcome is “inactive”.
